Laboratory results as given in patent US20180065968A1, “NEW SUBSTITUTED TRIAZOLOPYRIMIDINES AS ANTI-MALARIAL AGENTS” (BOARD OF REGENTS OF THE UNIVERSITY OF TEXAS SYSTEM, priority 2015, published 2018).
Values after ≈ are worked out from the molar mass of the structure shown. Like-named read-outs stand apart in the source and are kept apart here.

How the values were obtained:
[1] = test system: P. falciparum FC27 lab lines; assay: Ex vivo schizont maturation assay, lab line; format: cell-based; conditions: Plasmodium falciparum, read-out: P. falciparum FC27 lab lines IC50
Experimental: (§1) To assess comparative activity between P. falciparum and P. vivax strains compounds were tested in an ex vivo parasite assay using Plasmodium isolates from patients who visited clinics in Timika (Papua, Indonesia). Parasites in this region are resistant to standard anti-malarials such as chloroquine. P. vivax can not be cultivated in vitro so the ex vivo assay is the only method to evaluate drug sensitivity. Patients with parasitemia between 2000 and 80,000 ul^−1 were eligible for recruitment into the study. Blood was collected by venipuncture, host white blood cells were removed and packed infected red blood cells were used for the ex vivo studies. Drug susceptibility was measured as previously described (Russell et al., 2008, Antimicrobial Agents Chemother., 52, 1040-1045; Marfurt et al., 2011, Antimicrobial Agents Chemother., 55, 961-966; Marfurt et al., 2011, Antimicrobial Agents Chemother., 55, 4461-4464). Briefly two hundred μl of a 2% hematocrit blood mixture, consisting of RPMI 1640 medium plus 10% AB+ human serum (P. falciparum) or McCoy's 5A medium plus 20% AB+ human serum (P. vivax) was added to each well of pre-dosed drug plates containing serial 2-fold dilutions of the anti-malarial compound. A candle jar was used to mature parasites at 37° C. for 35-56 hrs. […] Thick blood films made from each well were stained with 5% Giemsa for 30 min and examined microscopically. The number of schizonts per 200 asexual stage parasites was determined and normalized to the control well. Data were analyzed by nonlinear regression (WinNonLn 4.1) to determine the IC50 using the inhibitory sigmoid Emax model.
(§2) Drug plate quality was assured by running schizont maturation assays (two independent experiments) with the chloroquine-resistant strain K1 and the chloroquine-sensitive strain FC27. For microscopy slide reading QC, two randomly selected drugs per isolate were read by a second microscopist. […] If necessary, discrepant results were resolved by a third reading by an expert microscopist.

[2] = test system: P. vivax clinical isolates; assay: Ex vivo schizont maturation assay, clinical isolates; format: cell-based; conditions: for IC50: Plasmodium vivax, read-out: P. vivax clinical isolates IC50
Experimental: as §1, §2

[3] = test system: P. falciparum clinical isolates; assay: as above; format: cell-based; conditions: Plasmodium falciparum, read-out: P. falciparum clinical isolates IC50
Experimental: as §1, §2

[4] = test system: P. falciparum Pf3D70087/N9; assay: SCID mouse P. falciparum in vivo efficacy model; parameters: species or system P. falciparum in NOD-scid IL-2Rγnull (NSG) mice; conditions: oral, starting day 3 post infection, NSG mice engrafted with human erythrocytes
Experimental: Briefly, NOD-scid IL-2Rγnull (NSG) mice (Jackson Laboratory, USA) (23-36 g) engrafted with human erythrocytes as described were infected with 20×10^6 P. falciparum Pf3D70087/N9) generated in GlaxoSmithkline Tres Cantos (Spain) by intravenous injection. Compounds were administered orally in vehicle (saline solution for Chloroquine; 0.5% w/v sodium carboxymethylcellulose, 0.5% v/v benzyl alcohol, 0.4% v/v Tween 80 in water for triazolopyrimidine analogs). Compounds were administered at target doses ranging from 0.5 to 75 mg/kg (free base equivalent) starting on day 3 post infection. Formulation concentrations were measured to obtain the actual doses administered. Parasitemia was monitored by flow cytometry and the effective dose (ED90) was calculated as described in Jimenez-Diaz, 2009, Antimicrobial agents and chemotherapy, 53, 4533-4536.

[5] = Aqueous kinetic solubility by nephelometry; format: physicochemical; conditions: pH 6.5 phosphate buffer, 1% DMSO; for solubility kinetic: aqueous buffer, kinetic from dmso stock, read-out: Kinetic Solubility pH6.5
Experimental: Aqueous solubility was estimated by nephelometry. Concentrated stock solutions were prepared in DMSO and diluted into either pH 6.5 phosphate buffer or 0.01 M HCl (approximately pH 2.0), with the final DMSO concentration being 1%. Samples were then analyzed by nephelometry to determine the solubility range as described previously (Bevan, et al., 2000, Anal. Chem., 72, 1781-1787).

[6] = target: dog DHODH (Canis lupus familiaris, UniProt A0A8I3MWX2); assay: Recombinant DHODH inhibition, DCIP dye-based assay; format: biochemical
Sequence of dog DHODH (A0A8I3MWX2 1-406): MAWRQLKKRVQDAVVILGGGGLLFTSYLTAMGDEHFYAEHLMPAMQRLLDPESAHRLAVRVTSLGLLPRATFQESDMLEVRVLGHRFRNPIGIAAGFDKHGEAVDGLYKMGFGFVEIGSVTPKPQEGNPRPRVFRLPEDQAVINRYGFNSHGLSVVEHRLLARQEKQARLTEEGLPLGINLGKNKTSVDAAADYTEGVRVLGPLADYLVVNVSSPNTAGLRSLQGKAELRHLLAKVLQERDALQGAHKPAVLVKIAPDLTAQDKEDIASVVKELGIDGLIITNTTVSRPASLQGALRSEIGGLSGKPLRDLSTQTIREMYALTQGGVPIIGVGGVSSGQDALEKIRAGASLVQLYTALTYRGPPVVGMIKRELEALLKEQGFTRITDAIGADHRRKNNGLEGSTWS
Experimental: (§3) The compounds of the invention were also assessed for inhibitory activity against recombinant DHODH from the indicated species. Recombinant enzymes were produced and purified from E. coli as His6 fusion proteins and purified by Ni^+2-agarose chromatography as described.
(§4) Data were collected on a Synergy H1 hybrid plate reader in 96 well plate format at 28° C., using a final assay volume of 200 μl. Rate data (v) were converted to μmoles/min using the molar extinction coefficient for DCIP. Compounds were prepared in stock solutions of DMSO. An initial 100 mM stock was generated and this was used to prepare a 3 fold dilution series in DMSO. A 1:100 dilution of DMSO stock was made into assay buffer to generate the final concentration in the assay mix.
(§5) Assay Conditions: DHODH (ET=5-10 nM), substrates (0.2 mM L-dihydroorotate and 0.02 mM CoQD), DCIP (0.12 mM) and assay buffer (100 mM HEPES, pH 8.0, 150 mM NaCl, 10% Glycerol, 0.1%Triton) at 20° C. Concentration of compounds of the invention was varied in a 3-fold dilution series (0.01-100 uM). All data were collected in triplicate.
(§6) Fitting was performed in Graph Pad Prism to determine the IC50. Reported error represents the 95% confidence interval of the fit or the standard deviation of the mean.

[7] = target: mouse DHODH (Mus musculus, UniProt O35435); assay: Recombinant DHODH inhibition, DCIP dye-based assay; format: biochemical; conditions: third value of cell, read-out: h/d/m/r DHODH (m)
Sequence of mouse DHODH (O35435 whole entry): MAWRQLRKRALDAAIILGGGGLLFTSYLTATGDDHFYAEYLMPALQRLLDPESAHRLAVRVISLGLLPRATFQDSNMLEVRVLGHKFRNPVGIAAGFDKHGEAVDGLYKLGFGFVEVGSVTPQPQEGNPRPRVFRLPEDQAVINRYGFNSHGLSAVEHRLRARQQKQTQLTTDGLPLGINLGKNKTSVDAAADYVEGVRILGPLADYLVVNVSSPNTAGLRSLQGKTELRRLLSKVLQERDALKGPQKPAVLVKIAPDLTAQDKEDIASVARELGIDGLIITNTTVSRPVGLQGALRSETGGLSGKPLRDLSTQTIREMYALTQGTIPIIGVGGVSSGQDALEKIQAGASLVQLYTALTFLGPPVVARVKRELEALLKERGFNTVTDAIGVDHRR
Experimental: as §3, §4, §5, §6

[8] = target: rat DHODH (Rattus norvegicus, UniProt Q63707); assay: Recombinant DHODH inhibition, DCIP dye-based assay; format: biochemical; conditions: fourth value of cell, read-out: h/d/m/r DHODH (r)
Sequence of rat DHODH (Q63707 whole entry): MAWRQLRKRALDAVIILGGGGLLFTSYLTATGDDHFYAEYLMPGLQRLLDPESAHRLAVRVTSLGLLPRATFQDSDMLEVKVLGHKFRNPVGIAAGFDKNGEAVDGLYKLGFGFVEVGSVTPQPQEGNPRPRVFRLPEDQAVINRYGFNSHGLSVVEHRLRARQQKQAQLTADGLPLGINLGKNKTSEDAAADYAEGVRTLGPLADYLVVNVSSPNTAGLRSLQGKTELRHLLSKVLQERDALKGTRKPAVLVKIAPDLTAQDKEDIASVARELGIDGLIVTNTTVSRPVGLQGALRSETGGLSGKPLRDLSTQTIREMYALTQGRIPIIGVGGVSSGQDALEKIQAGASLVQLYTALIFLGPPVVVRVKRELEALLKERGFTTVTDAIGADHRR
Experimental: as §3, §4, §5, §6

[9] = target: human DHODH (Homo sapiens, UniProt Q02127); assay: Recombinant DHODH inhibition, DCIP dye-based assay; format: biochemical; conditions: first value of cell, read-out: h/d/m/r DHODH (h)
Sequence of human DHODH (Q02127 whole entry): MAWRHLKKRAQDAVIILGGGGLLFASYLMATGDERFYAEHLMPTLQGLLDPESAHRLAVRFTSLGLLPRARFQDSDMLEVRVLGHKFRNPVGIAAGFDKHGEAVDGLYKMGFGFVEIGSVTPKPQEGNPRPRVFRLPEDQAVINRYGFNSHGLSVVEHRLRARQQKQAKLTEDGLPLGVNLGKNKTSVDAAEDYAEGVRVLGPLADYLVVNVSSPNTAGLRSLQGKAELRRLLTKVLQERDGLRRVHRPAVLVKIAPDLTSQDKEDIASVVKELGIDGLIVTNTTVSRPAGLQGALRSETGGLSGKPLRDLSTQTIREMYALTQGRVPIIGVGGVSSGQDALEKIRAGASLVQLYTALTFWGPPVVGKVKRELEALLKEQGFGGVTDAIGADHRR
Experimental: as §3, §4, §5, §6

[10] = target: T1, pfDHODH (Plasmodium falciparum, UniProt Q08210); assay: biochemical
T1 sequence (Q08210 24-569): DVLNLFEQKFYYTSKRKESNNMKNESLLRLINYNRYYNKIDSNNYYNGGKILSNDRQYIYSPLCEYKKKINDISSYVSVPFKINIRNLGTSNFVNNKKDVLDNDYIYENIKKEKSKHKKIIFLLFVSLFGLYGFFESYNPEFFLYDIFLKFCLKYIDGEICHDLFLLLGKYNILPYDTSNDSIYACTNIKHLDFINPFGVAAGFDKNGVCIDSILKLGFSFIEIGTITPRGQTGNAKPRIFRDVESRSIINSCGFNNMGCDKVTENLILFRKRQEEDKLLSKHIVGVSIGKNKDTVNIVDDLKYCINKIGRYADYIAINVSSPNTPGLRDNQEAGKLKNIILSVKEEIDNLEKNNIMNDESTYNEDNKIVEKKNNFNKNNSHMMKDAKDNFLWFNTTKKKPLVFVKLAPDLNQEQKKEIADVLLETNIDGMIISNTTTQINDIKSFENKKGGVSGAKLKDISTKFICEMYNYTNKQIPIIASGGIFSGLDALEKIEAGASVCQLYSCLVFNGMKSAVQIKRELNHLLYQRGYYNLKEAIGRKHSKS
Experimental: as §3, §4, §5, §6

[11] = test system: P. falciparum 3D7; assay: P. falciparum 3D7 growth inhibition assay (SYBR green); format: cell-based; conditions: Plasmodium falciparum, 72 h incubation, 50% growth inhibition, read-out: Pf 3D7 EC50
Experimental: The ability of triazolopyrimidine derivatives according to the invention to kill P. falciparum parasites and/or to inhibit its proliferation is assayed through their ability to inhibit Plasmodium falciparum growth. The growth inhibition assay is as follows: P. falciparum 3D7 cells were grown in Gibco-Invitrogen RPMI-1640 supplemented with 2% (w/v) red blood cells (RBCs) and either 20% human type A+ plasma (Desjardins et al., 1979, Antimicrob Agents Chemother. 16, 710-718) or with Gibco-Invitrogen 0.5% Albumax I (Coteron et al., 2011, J. Med. Chem., 54, 5540-5561). Serial dilutions of compound stocks were prepared in 100% DMSO at 200× the final concentration, followed by generation of 20× stocks in media. Cell growth was monitored by the SYBR green method as described (Deng, et al., 2014. J. Med. Chem., 57, 5381-539). Parasites (0.19 ml of 0.5% parasitemia, 0.5% HCT) were plated into 96-well microtiter plates containing 10 μL compound or DMSO control (final DMSO concentration of 0.5%). Non-parasitized RBCs (0.5% HCT) were used as a control to determine background fluorescence. After 72 h of incubation parasitized RBCs were quantitated by the SYBR Green method. 2× SYBR Green I solution (20 μL) in 1× PBS was mixed with 20 μL parasites in 96-well plates, incubated for 20 min, and after which 160 μL of 1× PBS was added. Fluorescence was detected using a BD Biosciences Acurri C6 flow cytometer and events recorded within gates that encompassed all asexual growth stages of the P. falciparum intraerythrocytic life cycle. A minimum 50,000 total events were recorded per well. Background events determined from non-parasitized RBC controls were subtracted from final counts.

[12] = dog DHODH, second value of cell, read-out: h/d/m/r DHODH (d)
[13] = ex vivo schizont maturation, 35-56 hrs, FC27 chloroquine sensitive lab strain
[14] = recombinant enzyme, DCIP assay, IC50, read-out: PfDHODH
[15] = ex vivo schizont maturation, 35-56 hrs, isolates from Timika (Papua, Indonesia)

SMILES	ED90 [4] [mg/kg per day]	solubility kinetic [5] [µg/mL]	IC50 [6, 12] [nM]	IC50 [7] [nM]	IC50 [8] [nM]	IC50 [9] [nM]	IC50 [10, 14] [nM]	EC50 [11] [nM]	other results
C[C@H]1[C@H](OC(=O)CCC(=O)O)O[C@@H]2O[C@@]3(C)CC[C@H]4[C@H](C)CC[C@@H]1[C@@]24OO3 [Artesunate]	–	–	–	–	–	–	–	–	IC50 [1]: 3.6 to 11 nM; IC50 [2]: 0.8 to 2.9 nM
CCN(CC)CCCC(C)Nc1ccnc2cc(Cl)ccc12 (stereo not drawn) [Chloroquine]	4.3	–	–	–	–	–	–	–	IC50 [1]: 23 to 32 nM; IC50 [2]: 43 to 147 nM; IC50 [3]: 86 to 101 nM
Cc1cc(Nc2ccc(C(F)(F)F)nc2)n2nc(C(C)(F)F)nc2n1 [Compound (1), 2-(1,1-difluoroethyl)-5-methyl-N-(6-(trifluoromethyl)pyridin-3-yl)-[1,2,4]triazolo[1,5-a]pyrimidin-7-amine]	2.6	> 100	65000	54000	24000	> 100000	30	11	IC50 [1, 13]: 292 nM; IC50 [2, 15]: 175 nM; comparative activity between P. falciparum and P. vivax ([2]; ex vivo parasite assay): equivalent activity on both P. falciparum and P. vivax; IC50 [3, 15]: 151 nM
Cc1nc2nc(C(C)(F)F)nn2c(Nc2ccc(C(F)(F)F)nc2)c1F [Compound (2), 2-(1,1-difluoroethyl)-6-fluoro-5-methyl-N-(6-(trifluoromethyl)pyridin-3-yl)-[1,2,4]triazolo[1,5-a]pyrimidin-7-amine]	–	> 100	9200	20000	15700	62000	23	16	–
Cc1cc(Nc2ccc(C(F)(F)F)nc2)n2nc(C(F)(F)F)nc2n1 [Compound (3), 5-methyl-2-(trifluoromethyl)-N-(6-(trifluoromethyl)pyridin-3-yl)-[1,2,4]triazolo[1,5-a]pyrimidin-7-amine]	–	50 (≈ 138 µM)	–	33000	8400	> 100000	41	35	IC50 [6]: 39000 nM
CCc1nc(N)nc(N)c1-c1ccc(Cl)cc1 [Pyrimethamine]	0.9	–	–	–	–	–	–	–	–
Cc1cc(Nc2ccc(C(F)(F)F)nc2)n2nc(C(C)(F)F)nc2n1 [Reference 1]	–	–	21000	74000	4400	58000	50	–	Kinetic Solubility pH6.5 [5]: 6.3 μg/ml
Cc1cc(Nc2ccc(C(F)(F)F)cn2)n2nc(C(F)(F)F)nc2n1 [Reference 2]	–	1.6 (≈ 4.42 µM)	–	–	–	> 50000	37	70	–
Cc1cc(Nc2ccc(C(F)(F)F)cc2)n2nc(C(C)(F)F)nc2n1 [Reference 3]	26	50 (≈ 140 µM)	> 100000	24000	7200	> 100000	–	8.3	IC50 [10]: 31 nM
Cc1cc(Nc2ccc(S(F)(F)(F)(F)F)cc2)n2nc(C(C)(F)F)nc2n1 [Reference 4]	8.1	25 (≈ 60.2 µM)	–	–	–	–	–	5	IC50 [1, 13]: 177 nM; IC50 [2, 15]: 920 nM; IC50 [3, 15]: 190 nM
